In brackets after ≈: the same amount, converted by molar mass.
Test system: Mycobacterium tuberculosis variant bovis BCG
Assay: microbe, parasite or virus in culture
Type: functional

SMILES	MIC90
Clc1ccc(OCc2noc(CC3CCN(CCOCc4ccccc4)C3)n2)cc1 (stereo not given)	6 µM (≈ 2.57 µg/mL)
N#Cc1nc(-c2ccccc2)oc1S(=O)(=O)c1ccc(Cl)cc1	3.6 µM (≈ 1.24 µg/mL)
Cc1cc(O)nc(-n2nc(C)cc2NC(=O)c2cc3ccccc3o2)n1	6.2 µM (≈ 2.17 µg/mL)
COCc1nc(N2CCCNCC2)c2c(C)nn(-c3cccc(Cl)c3)c2n1	0.4 µM (≈ 0.155 µg/mL)
Cc1csc2nc(-c3ccccn3)nc(Nc3ccncn3)c12.O=C(O)C(F)(F)F	1.3 µM
CN(Cc1nc2ccccc2s1)C(=O)c1ccc2c(c1)CC(c1ccccc1)OC2=O (stereo not given)	4.7 µM (≈ 2.01 µg/mL)
CC(c1nc2ccccc2s1)N(C)C(=O)c1cccc(-n2cnnn2)c1 (stereo not given)	5.6 µM (≈ 2.04 µg/mL)
COc1ccc(-c2ccc(Nc3cccc(S(=O)(=O)CCNCC4CC4)c3)nc2)cn1	5.6 µM (≈ 2.46 µg/mL)
CC1(C(=O)Nc2cccc3cccnc23)CCN1CC1CC1 (stereo not given)	4.6 µM (≈ 1.36 µg/mL)
CC(C)Oc1ccc(NCC(=O)Nc2ccc(F)cc2)cc1	6.7 µM (≈ 2.03 µg/mL)
CCc1ccc(C2CC(C(F)(F)F)n3ncc(C(=O)NCc4cccs4)c3N2)cc1 (stereo not given)	8.8 µM (≈ 3.82 µg/mL)
COc1ccc(C2CC(=O)N(Cc3cccc(F)c3)c3ccccc3S2)cc1OC (stereo not given)	5.9 µM (≈ 2.5 µg/mL)
N[C@H]1CC[C@H](NCc2ccc(O)c(C(=O)NCc3ccc(Cl)c(Cl)c3)c2)CC1	8.5 µM (≈ 3.59 µg/mL)
Cc1ccc2c(c1)c(=O)cc(C(F)(F)F)n2CCNC(=O)c1ccccc1F	9.4 µM (≈ 3.69 µg/mL)
CN1CC[C@@H](Oc2cc(-c3noc(-c4ccc(Br)s4)n3)ccc2C(F)(F)F)C1	8.4 µM (≈ 3.98 µg/mL)
N=C(N)c1ccc(CCN2CCC(c3nc(COCC(F)(F)F)c(-c4ccc(F)cc4)o3)CC2)cc1.O=C(O)C(F)(F)F.O=C(O)C(F)(F)F	8.2 µM
CCCCS(=O)(=O)Nc1ccc2cnn(C)c2c1	0.5 µM (≈ 0.134 µg/mL)
Cc1cc(CN2CCCN(c3ncc(-c4ccsc4)c4nc(C(F)(F)F)ccc34)CC2)no1	9.8 µM (≈ 4.64 µg/mL)
CC(C)(C)OC(=O)n1cc(CN2CCC3(CC2)OCCc2sccc23)c2ccccc21	9.5 µM (≈ 4.17 µg/mL)
O=C(Nc1nnc(-c2ccccc2)o1)c1cccc(C(F)(F)F)c1	3.6 µM (≈ 1.2 µg/mL)
COc1ccc(-c2nc(NC(=O)C3CCCN3S(=O)(=O)c3cccs3)sc2C)cc1 (stereo not given)	6.9 µM (≈ 3.2 µg/mL)
O=C(c1cc2ccccc2o1)N1CCN(Cc2ccc3c(c2)OCO3)CC1	2.7 µM (≈ 0.984 µg/mL)
COc1ccc(-c2nc(C(=O)N3CCCCC3c3nc4ccccc4s3)cs2)cc1 (stereo not given)	4.8 µM (≈ 2.09 µg/mL)
COc1ccccc1NC(=O)CN(Cc1ccco1)C(=O)c1cccc(NC(=O)c2cccs2)c1	0.4 µM (≈ 0.196 µg/mL)
COc1ccc(-c2ccc(Nc3cccc(S(=O)(=O)CCNCCc4cccs4)c3)nc2)cn1	7.2 µM (≈ 3.56 µg/mL)
Brc1cncc(-c2cc(NCCCn3ccnc3)nc(-c3ccccc3)n2)c1	7.6 µM (≈ 3.31 µg/mL)
O=C(/C=C/c1ccccc1C(F)(F)F)Nc1ccc2c(c1)C1CCCN1CC2 (stereo not given)	7.3 µM (≈ 2.82 µg/mL)
c1ccc(-c2nnc(Sc3ccnc(N4CCN(c5ccncc5)CC4)n3)n2CCCN2CCOCC2)nc1	4.6 µM (≈ 2.51 µg/mL)

SMILES	MIC90
O=C(Nc1nc(-c2ccccn2)cs1)c1ccc2c(c1)OCO2	3 µM (≈ 0.976 µg/mL)
NC(=O)c1cc(-c2ccsc2)ccc1OCCOc1ccccc1	2.7 µM (≈ 0.916 µg/mL)
O=C(c1[nH]nc2c1CCCC2)N1CCN(Cc2ccc3c(c2)OCO3)CC1	3.9 µM (≈ 1.44 µg/mL)
COc1ccc(-c2ccc(Nc3cccc(S(=O)(=O)CCNCC(C)(C)C)c3)nc2)cn1	2.9 µM (≈ 1.32 µg/mL)
Cc1ccc(-c2ccnc(-c3cccc(-c4ccccn4)n3)c2)cc1	6.1 µM (≈ 1.97 µg/mL)
Cn1c(=O)c(C(=O)NNC(=O)c2cccc(Cl)c2)c(O)c2ccccc21	5.3 µM (≈ 1.97 µg/mL)
O=C(CCC1CCCCC1)Nc1cccc(-c2nnc(-c3ccco3)o2)c1	9.2 µM (≈ 3.36 µg/mL)
O=C(NCc1ccccc1F)N1CCN(Cc2ccc(Br)s2)CC1	9.4 µM (≈ 3.88 µg/mL)
CN(Cc1ccccc1)c1ccc2nnc(-c3ccccc3)n2n1	9.9 µM (≈ 3.12 µg/mL)
COCCN1CCN(c2ccnc(-n3cnc4cc(C)c(C)cc43)n2)CC1	0.8 µM (≈ 0.293 µg/mL)
Fc1ccccc1-c1noc(N2CCN(Cc3ccc4c(c3)OCO4)CC2)n1	6.7 µM (≈ 2.56 µg/mL)
CCOc1ccc(OCc2ccc(C(=O)NNC(=O)c3ccc([N+](=O)[O-])o3)cc2)cc1	1.6 µM (≈ 0.681 µg/mL)
COc1ccc(CCNc2cc(-c3ccccc3)nc3ncnn23)cc1	1 µM (≈ 0.345 µg/mL)
COc1cc(Nc2ccccc2)ccc1NS(=O)(=O)c1c(C)noc1C	2.9 µM (≈ 1.08 µg/mL)
CC(C)COc1ccc(C(=O)Nc2ccc(N3CCN(C)CC3)cc2)cc1	6.9 µM (≈ 2.54 µg/mL)
O=C(NC1=NCCS1)c1sc2cc(F)ccc2c1Cl	8.2 µM (≈ 2.58 µg/mL)
CCOc1ccccc1NC(=O)[C@H](Cc1ccccc1)NC(=O)c1cccs1	9.5 µM (≈ 3.75 µg/mL)
CCn1c(-c2ccccc2)nc2c(-c3ccc(C)cc3)ncc(OCCCN)c21	8.8 µM (≈ 3.4 µg/mL)
Cc1cc(/C=C/c2cccc(C(=O)O)c2)cc(Cl)c1OCC1CCCNC1 (stereo not given)	6.7 µM (≈ 2.59 µg/mL)
Cc1cc2c(NC(=O)NC3CCN(c4ccc(C(F)(F)F)cn4)CC3)cccc2c(C)n1	3.1 µM (≈ 1.37 µg/mL)
Cc1ccc(C2CC(C(F)(F)F)n3ncc(C(=O)NCc4ccc5c(c4)OCO5)c3N2)cc1 (stereo not given)	1.9 µM (≈ 0.871 µg/mL)
Nn1c(=O)oc2ccc(Cl)cc2c1=O	2.8 µM (≈ 0.595 µg/mL)
COc1ccc(-c2ccc(Nc3cccc(S(=O)(=O)CCN(C)Cc4ccccc4)c3)nc2)cn1	7.4 µM (≈ 3.62 µg/mL)
O=C(Nc1nc(-c2ccccn2)cc2ccccc12)c1cccc(Cl)c1	3 µM (≈ 1.08 µg/mL)
COc1cc(CN2CCC(Cc3nc(-c4ccc5c(c4)CCO5)no3)C2)ccc1F (stereo not given)	6.7 µM (≈ 2.74 µg/mL)
COCCCNCCOc1ccc2ccccc2c1Br	6.8 µM (≈ 2.3 µg/mL)
O=C(C=Cc1cccs1)N1CCN(Cc2ccc3c(c2)OCO3)CC1	1.7 µM (≈ 0.606 µg/mL)

Source: ChEMBL document CHEMBL2095176, “GSK Tuberculosis Screening Data”
